The subject of experiment [1] is Mesenchymal stem cells. Put plainly: Induction of adiponectin synthesis in human differentiated BMMSC cells assessed as lipid accumulation at 10 uM measured after 5 days in the presence of IDX induction medium by Oil red O staining based inverted phase contrast microscope analysis. The class given is functional, cell-based. Conditions: time 5.0 day.
Experiment [2] relates to Mesenchymal stem cells. As to the kind of experiment: Upregulation of FABP4 mRNA expression in human BMMSC cells at 10 uM measured after 3 days by qRT-PCR analysis. The experiment is classed as functional, cell-based. Conditions: time 3.0 day. (Real-time PCR tracks product formation cycle by cycle.)
Experiment [3] concerns Mesenchymal stem cells. As to the kind of experiment: Upregulation of PPARgamma mRNA expression in human BMMSC cells at 10 uM measured after 3 days by qRT-PCR analysis. The class given is functional, cell-based. The conditions noted are these: time 3.0 day.
In experiment [4] the test system is Mesenchymal stem cells. Put plainly: Upregulation of adiponectin mRNA expression in human BMMSC cells at 10 uM measured after 3 days by qRT-PCR analysis. The class given is functional, cell-based. Conditions: time 3.0 day.
In experiment [5] the test system is Mesenchymal stem cells. As to the kind of experiment: Induction of adiponectin synthesis in human differentiated BMMSC cells at 10 uM measured after 5 days in the presence of IDX induction medium by ELISA. The experiment is classed as functional, cell-based. Conditions: time 5.0 day. (In general: An ELISA detects its analyte on a solid surface through an enzyme-linked reagent.)

Experiment [6] concerns Mesenchymal stem cells. As to the kind of experiment: Induction of adiponectin synthesis in human differentiated BMMSC cells assessed as fold increase in adiponectin level at 10 uM measured after 5 days in the presence of IDX induction medium by ELISA. The class given is functional. Conditions: time 5 day.
The test system of experiment [7] is Mesenchymal stem cells. As to the kind of experiment: Induction of adiponectin synthesis in human differentiated BMMSC cells measured after 5 days in the presence of IDX induction medium by ELISA. The experiment is classed as functional, cell-based. Conditions: 120 h.
The target of experiment [8] is Estrogen receptor beta (Homo sapiens) (UniProt Q92731). Put plainly: Binding affinity to ERbeta (unknown origin) at 10 uM by Lanthascreen TR-FRET assay relative to control. On the technique in general: In TR-FRET formats the signal depends on donor and acceptor labels being close together.
The target in experiment [9] is T1, Peroxisome proliferator-activated receptor gamma (Homo sapiens, UniProt P37231).
T1 sequence (P37231 whole entry): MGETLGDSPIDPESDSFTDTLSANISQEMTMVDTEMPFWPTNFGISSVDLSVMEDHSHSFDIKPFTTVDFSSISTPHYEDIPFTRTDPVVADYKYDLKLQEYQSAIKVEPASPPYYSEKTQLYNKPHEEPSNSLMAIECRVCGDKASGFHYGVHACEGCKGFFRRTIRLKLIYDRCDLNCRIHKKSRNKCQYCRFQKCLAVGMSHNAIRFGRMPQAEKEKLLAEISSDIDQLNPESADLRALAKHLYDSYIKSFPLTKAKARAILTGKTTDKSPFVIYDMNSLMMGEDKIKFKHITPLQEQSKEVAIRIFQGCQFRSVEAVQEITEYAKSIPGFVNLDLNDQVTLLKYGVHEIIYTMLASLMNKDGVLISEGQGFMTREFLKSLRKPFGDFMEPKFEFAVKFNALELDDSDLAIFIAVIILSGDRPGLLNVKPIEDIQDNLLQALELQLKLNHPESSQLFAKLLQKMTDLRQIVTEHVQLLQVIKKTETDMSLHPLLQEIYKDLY
As to the kind of experiment: Binding affinity to PPARgamma (unknown origin) assessed as inhibition constant by Lanthascreen TR-FRET assay relative to control.

We go through 6 compounds from ChEMBL document CHEMBL5120752, “Galangin 3-benzyl-5-methylether derivatives function as an adiponectin synthesis-promoting peroxisome proliferator-activated receptor γ partial agonist” (Bioorg Med Chem, 2022).

Activity calls are given as the source filed them. The rule behind the calls is not given here.

Estrogen receptor beta (Homo sapiens), sequence (Q92731 whole entry): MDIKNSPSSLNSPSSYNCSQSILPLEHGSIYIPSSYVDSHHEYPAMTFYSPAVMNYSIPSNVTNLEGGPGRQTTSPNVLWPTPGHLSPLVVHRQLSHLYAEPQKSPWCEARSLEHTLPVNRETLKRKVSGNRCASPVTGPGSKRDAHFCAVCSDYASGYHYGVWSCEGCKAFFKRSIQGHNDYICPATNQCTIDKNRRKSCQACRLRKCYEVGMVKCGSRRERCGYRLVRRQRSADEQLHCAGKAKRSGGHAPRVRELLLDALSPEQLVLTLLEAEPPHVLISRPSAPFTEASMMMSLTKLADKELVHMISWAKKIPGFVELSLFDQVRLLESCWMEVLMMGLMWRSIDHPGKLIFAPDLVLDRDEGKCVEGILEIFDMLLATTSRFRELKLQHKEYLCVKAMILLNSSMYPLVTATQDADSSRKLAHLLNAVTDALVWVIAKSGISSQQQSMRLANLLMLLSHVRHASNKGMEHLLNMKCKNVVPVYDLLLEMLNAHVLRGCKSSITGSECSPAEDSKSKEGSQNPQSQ

Turning to `COc1cc(OC)c2c(=O)c(OCc3ccccc3)c(-c3ccccc3)oc2c1`, the outcome in the experiment on Mesenchymal stem cells [1], with Mesenchymal stem cells [2], in the experiment on Mesenchymal stem cells [3], in the experiment with Mesenchymal stem cells [4] and with Mesenchymal stem cells [5] was Active.
In the case of `COc1cc(OC(=O)c2ccccc2)cc2oc(-c3ccccc3)c(OCc3ccccc3)c(=O)c12`, in the experiment with Mesenchymal stem cells [5], the outcome was Active. Also, in the experiment on Mesenchymal stem cells [6], the “fold change (FC)” value was 2.76.
With `COc1cc(O)c2c(=O)c(OCc3ccccc3)c(-c3ccccc3)oc2c1`, in the experiment on Mesenchymal stem cells [5], the result was Active.
For the compound `COc1cc(OC(=O)c2ccccc2)cc2oc(-c3ccccc3)c(O)c(=O)c12`, the outcome in the experiment on Mesenchymal stem cells [5] was Active.
For orientation: EC50 means the concentration giving half of the maximal effect. Turning to `COc1cc(O)cc2oc(-c3ccccc3)c(OCc3ccccc3)c(=O)c12`, the outcome in the experiment with Mesenchymal stem cells [1], with Mesenchymal stem cells [2], in the experiment with Mesenchymal stem cells [3], in the experiment with Mesenchymal stem cells [4] and in the experiment on Mesenchymal stem cells [5] was Active. Also, the EC50 with Mesenchymal stem cells [7] came to 14.9 µM. In the experiment on Mesenchymal stem cells [6], the “fold change (FC)” value is recorded as 2.88.
For orientation: Ki means the dissociation constant of the complex between target and ligand, obtained from inhibition or displacement. Take `O=c1c(O)c(-c2ccccc2)oc2cc(O)cc(O)c12` [GALANGIN]: the result with Mesenchymal stem cells [1], in the experiment with Mesenchymal stem cells [2], in the experiment with Mesenchymal stem cells [3], in the experiment with Mesenchymal stem cells [4] and with Mesenchymal stem cells [5] was Active. This compound registered an Activity in experiment [8] of 79.4%. For the same compound, the Ki in [9] came out at 5.6 µM.
